Experimental data as given in ChEMBL document CHEMBL1201862, “PubChem BioAssay data set” (2004).
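Results reflect a 48-hour exposure of cells in 96-well plates to compound at five concentrations. Abbreviation: GI50, concentration required for 50% inhibition of growth.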 Activity calls are given as the source filed them. Rule as the data show it: active = GI50 up to about 1.1 µM and inactive = higher.

Columns and labels:
Test in all cases: NCI anticancer screen, dose series, 48 h
EKVX = system: EKVX
SF-295 = system: SF-295
NCI-H23 = system: NCI-H23
OVCAR-3 = system: OVCAR-3
NCI-H522 = system: NCI-H522
SK-MEL-5 = system: SK-MEL-5
MOLT-4 = system: MOLT-4
SF-539 = system: SF-539
HL-60 = system: HL-60
SN12C = system: SN12C
HCT-15 = system: HCT-15
CCRF-CEM = system: CCRF-CEM
IGROV-1 = system: IGROV-1
SK-MEL-2 = system: SK-MEL-2
Malme-3M = system: Malme-3M
HCC 2998 = system: HCC 2998
UACC-62 = system: UACC-62
M14 = system: M14
SR = system: SR

Row | SMILES | GI50 (EKVX) | GI50 (SF-295) | GI50 (NCI-H23) | GI50 (OVCAR-3) | GI50 (NCI-H522) | GI50 (SK-MEL-5) | GI50 (MOLT-4) | GI50 (SF-539) | GI50 (HL-60) | GI50 (SN12C) | GI50 (HCT-15) | GI50 (CCRF-CEM) | GI50 (IGROV-1) | GI50 (SK-MEL-2) | GI50 (Malme-3M) | GI50 (HCC 2998) | GI50 (UACC-62) | GI50 (M14) | GI50 (SR)
1 | O=C(N[C@@H](c1ccccc1)[C@@H](O)C(=O)OCc1ccc2c(c1)OCO2)c1ccccc1 | > 100 µM (inactive) | > 100 µM (inactive) | > 100 µM (inactive) | > 100 µM (inactive) | > 100 µM (inactive) | > 100 µM (inactive) | > 91.8 µM (inactive) | > 100 µM (inactive) | > 100 µM (inactive) | > 100 µM (inactive) | > 100 µM | > 100 µM (inactive) | > 100 µM (inactive) | > 100 µM (inactive) | > 100 µM (inactive) | > 100 µM (inactive) | > 80.7 µM (inactive) |  | 
2 | CC1C(=O)CC(c2cccs2)N(N=O)C1c1cccs1 (stereo not drawn) | 57.1 µM (inactive) | 24.7 µM (inactive) | 40.6 µM (inactive) | 47 µM (inactive) | 28.2 µM (inactive) | 33.4 µM (inactive) | 25.8 µM (inactive) | 57.5 µM (inactive) | 26.7 µM (inactive) | 69.8 µM (inactive) | 46.1 µM | 34 µM (inactive) | 98.6 µM (inactive) | 49.9 µM (inactive) | > 82 µM (inactive) | 30.4 µM (inactive) | 59.7 µM (inactive) |  | 
3 | O=C1OC(c2ccccc2)=N/C1=C/c1cccs1 | > 100 µM (inactive) | > 100 µM (inactive) |  | 26.8 µM (inactive) |  |  | 14.5 µM (inactive) | 27.6 µM (inactive) | 18.8 µM (inactive) |  | 36.7 µM | 23.4 µM (inactive) | > 100 µM (inactive) | 49 µM (inactive) |  | > 100 µM (inactive) |  | > 100 µM (inactive) | 70 µM (inactive)
4 | CCOC(=O)/C=C/c1c[nH]c(=O)[nH]c1=O | > 75 µM (inactive) | > 75 µM (inactive) | > 75 µM (inactive) | > 75 µM (inactive) | > 75 µM (inactive) | > 75 µM (inactive) | > 33.4 µM (inactive) | > 75 µM (inactive) | > 75 µM (inactive) | > 75 µM (inactive) | > 75 µM | > 75 µM (inactive) | > 75 µM (inactive) | > 75 µM (inactive) | > 75 µM (inactive) | > 75 µM (inactive) | > 75 µM (inactive) |  | 
5 | N#CCCc1nc2ccc(Br)cc2c(=O)n1-c1ccc(O)c([N+](=O)[O-])c1 | 25.5 µM (inactive) | 20.1 µM (inactive) | 20.8 µM (inactive) | 18.7 µM (inactive) | 15.8 µM (inactive) | 18.4 µM (inactive) | 19.6 µM (inactive) | 18.8 µM (inactive) | 17.2 µM (inactive) | 19 µM (inactive) | 18.8 µM | 19.7 µM (inactive) | 20.6 µM (inactive) | 18.6 µM (inactive) | 17.3 µM (inactive) | 18.6 µM (inactive) | 18.9 µM (inactive) | 21 µM (inactive) | 
6 | CCOC(=O)NC(=O)c1cn(CCSCCOC(=O)NCCCCCCNC(=O)OCCSCCn2cc(C(=O)NC(=O)OCC)c(=O)n(C)c2=O)c(=O)n(C)c1=O | > 100 µM (inactive) | 75.7 µM (inactive) | 19.9 µM (inactive) | 23.8 µM (inactive) |  |  | 5.68 µM (inactive) | 25.9 µM (inactive) | 15.3 µM (inactive) | 21.8 µM (inactive) | 86.3 µM | 30 µM (inactive) |  | 34.2 µM (inactive) | 24.6 µM (inactive) | 30.5 µM (inactive) | 24.8 µM (inactive) |  | 13.4 µM (inactive)
7 | CC1(c2cc3c(cc2Br)OCO3)SCCCS1 | 77.1 µM (inactive) | 49.1 µM (inactive) | 13.3 µM (inactive) | 38.4 µM (inactive) | 1.84 µM (inactive) | 20.4 µM (inactive) | 24.7 µM (inactive) | 36.5 µM (inactive) | 25.1 µM (inactive) | 39.3 µM (inactive) | 38.7 µM | 32.1 µM (inactive) | > 100 µM (inactive) | 26.2 µM (inactive) |  | 16.4 µM (inactive) | 50.6 µM (inactive) | 38.3 µM (inactive) | 
8 | CN(C)/N=C(\CCN1CCCC1)CC(c1ccccc1)c1c(O)c2ccccc2oc1=O (stereo not drawn) | > 100 µM (inactive) | > 100 µM (inactive) | > 100 µM (inactive) | > 100 µM (inactive) | > 100 µM (inactive) |  |  | > 100 µM (inactive) | 25.2 µM (inactive) | > 100 µM (inactive) |  | > 100 µM (inactive) | > 100 µM (inactive) | > 100 µM (inactive) | > 100 µM (inactive) | > 100 µM (inactive) | > 100 µM (inactive) | > 100 µM (inactive) | 
9 | CC(=O)C(=Cc1cn(C)c(=O)n(C)c1=O)C(C)=O | 121 µM (inactive) | 107 µM (inactive) | 69.5 µM (inactive) | 116 µM (inactive) | 16.8 µM (inactive) | 86.9 µM (inactive) | 119 µM (inactive) | 103 µM (inactive) | 84.3 µM (inactive) | 99.1 µM (inactive) | 94 µM | 49.4 µM (inactive) | 150 µM (inactive) | 106 µM (inactive) | 83 µM (inactive) | 122 µM (inactive) | 75.9 µM (inactive) |  | 
10 | O=C(O)CCNCCCNCCC(=O)O | > 100 µM (inactive) | > 100 µM (inactive) | > 100 µM (inactive) | > 100 µM (inactive) | > 100 µM (inactive) | > 100 µM (inactive) | > 100 µM (inactive) | > 100 µM (inactive) | > 100 µM (inactive) | > 100 µM (inactive) | > 100 µM | > 100 µM (inactive) | > 100 µM (inactive) | > 100 µM (inactive) | > 100 µM (inactive) | > 100 µM (inactive) | > 100 µM (inactive) | > 100 µM (inactive) | 
11 | CCCCCCCCOC(CO)CO |  | > 100 µM (inactive) | > 100 µM (inactive) | > 100 µM (inactive) |  | > 100 µM (inactive) | > 100 µM (inactive) |  | > 100 µM (inactive) | > 100 µM (inactive) | > 100 µM | > 100 µM (inactive) | > 100 µM (inactive) |  | > 100 µM (inactive) | > 100 µM (inactive) | > 100 µM (inactive) | > 100 µM (inactive) | > 100 µM (inactive)
12 | CCCCCCc1cn([C@H]2C[C@H](O)[C@@H](CO)O2)c(=O)[nH]c1=O | > 100 µM (inactive) | > 31.6 µM (inactive) | > 100 µM (inactive) | > 100 µM (inactive) | > 100 µM (inactive) | > 100 µM (inactive) |  | > 100 µM (inactive) | > 100 µM (inactive) | > 100 µM (inactive) | > 100 µM | > 100 µM (inactive) | > 100 µM (inactive) | > 100 µM (inactive) | > 100 µM (inactive) | > 100 µM (inactive) | > 31.6 µM (inactive) |  | 
13 | Cc1nc2c(o1)/C(=N\c1ccccc1)c1ccccc1/C2=N/c1ccccc1 | 79.1 µM (inactive) | > 100 µM (inactive) | 49.2 µM (inactive) | 26.6 µM (inactive) | 33 µM (inactive) | > 100 µM (inactive) | > 100 µM (inactive) | > 100 µM (inactive) | > 100 µM (inactive) | 63.4 µM (inactive) | 16 µM | 58.2 µM (inactive) | > 100 µM (inactive) | 61.9 µM (inactive) | 56.6 µM (inactive) | > 100 µM (inactive) | > 100 µM (inactive) | 51.5 µM (inactive) | 
